# Experimental data published in ChEMBL document CHEMBL4011590, “Structure-activity relationship studies on 3,5-dinitrophenyl tetrazoles as antitubercular agents” (Eur J Med Chem, 2017).
# What was measured:
# Staphylococcus aureus [1] = assay: Antibacterial activity against methicillin-resistant Staphylococcus aureus HK5996/08 after 24 hrs by broth microdilution method; type: functional; conditions: HK5996/08, 24 h
# Staphylococcus aureus [2] = assay: Antibacterial activity against Staphylococcus aureus ATCC 6538 after 24 hrs by broth microdilution method; type: functional; conditions: ATCC 6538, 24 h
# Enterococcus sp. = assay: Antibacterial activity against Enterococcus sp. HK14365/08 after 24 hrs by broth microdilution method; type: functional; conditions: HK14365/08, 24 h
# [3] = tested on: Staphylococcus epidermidis; assay: Antibacterial activity against Staphylococcus epidermidis HK6966/08 after 24 hrs by broth microdilution method; type: functional; conditions: HK6966/08, 24 h
# Mycobacterium kansasii [4] = assay: Antimycobacterial activity against Mycobacterium kansasii isolate 6509/96 after 21 days by micromethod; type: functional; conditions: isolate 6509/96, 504 h
# CHO-K1 = assay: Cytotoxicity against CHOK1 cells after 24 hrs by MTT assay; type: cell-based; conditions: Cricetulus griseus, CHO-K1, 24 h
# Mycobacterium kansasii [5] = assay: Antimycobacterial activity against Mycobacterium kansasii isolate 6509/96 after 14 days by micromethod; type: functional; conditions: isolate 6509/96, 336 h
# Mycobacterium avium [6] = assay: Antimycobacterial activity against Mycobacterium avium CNCTC My 330/80 after 21 days by micromethod; type: functional; conditions: CNCTC My 330/80, 504 h
# Mycobacterium kansasii [7] = assay: Antimycobacterial activity against Mycobacterium kansasii isolate 6509/96 after 7 days by micromethod; type: functional; conditions: isolate 6509/96, 168 h
# Mycobacterium avium [8] = assay: Antimycobacterial activity against Mycobacterium avium CNCTC My 330/80 after 14 days by micromethod; type: functional; conditions: CNCTC My 330/80, 336 h
# Mycobacterium kansasii [9] = assay: Antimycobacterial activity against Mycobacterium kansasii CNCTC My 235/80 after 21 days by micromethod; type: functional; conditions: CNCTC My 235/80, 504 h
# Mycobacterium kansasii [10] = assay: Antimycobacterial activity against Mycobacterium kansasii CNCTC My 235/80 after 14 days by micromethod; type: functional; conditions: CNCTC My 235/80, 336 h
# [11] = tested on: Mycobacterium tuberculosis; assay: Antimycobacterial activity against Mycobacterium tuberculosis H37Rv CNCTC My 331/88 after 14 days by micromethod; type: functional; conditions: H37Rv CNCTC My 331/88, 336 h
# [12] = tested on: Mycobacterium tuberculosis; assay: Antimycobacterial activity against Mycobacterium tuberculosis H37Rv CNCTC My 331/88 after 21 days by micromethod; type: functional; conditions: H37Rv CNCTC My 331/88, 504 h
# Mycobacterium kansasii [13] = assay: Antimycobacterial activity against Mycobacterium kansasii CNCTC My 235/80 after 7 days by micromethod; type: functional; conditions: CNCTC My 235/80, 168 h
SMILES,MIC (Staphylococcus aureus [1]),MIC (Staphylococcus aureus [2]),MIC (Enterococcus sp.),MIC [3],MIC99 (Mycobacterium kansasii [4]),IC50 (CHO-K1),MIC99 (Mycobacterium kansasii [5]),MIC99 (Mycobacterium avium [6]),MIC99 (Mycobacterium kansasii [7]),MIC99 (Mycobacterium avium [8]),MIC99 (Mycobacterium kansasii [9]),MIC99 (Mycobacterium kansasii [10]),MIC99 [11],MIC99 [12],MIC99 (Mycobacterium kansasii [13])
CN[C@H](CC(C)C)C(=O)N[C@H]1C(=O)N[C@@H](CC(N)=O)C(=O)N[C@H]2C(=O)N[C@H]3C(=O)N[C@H](C(=O)N[C@H](C(=O)O)c4cc(O)cc(O)c4-c4cc3ccc4O)[C@H](O)c3ccc(c(Cl)c3)Oc3cc2cc(c3O[C@@H]2O[C@H](CO)[C@@H](O)[C@H](O)[C@H]2O[C@H]2C[C@](C)(N)[C@H](O)[C@H](C)O2)Oc2ccc(cc2Cl)[C@H]1O [VANCOMYCIN],0.35 µM,0.35 µM,0.7 µM,0.35 µM,–,–,–,–,–,–,–,–,–,–,–
O=[N+]([O-])c1cc(-c2nnn(Cc3cccc(F)c3)n2)cc([N+](=O)[O-])c1,–,–,–,–,2 µM,315 µM,1 µM,16 µM,0.5 µM,8 µM,2 µM,2 µM,1 µM,1 µM,1 µM
O=[N+]([O-])c1cc(-c2nnn(Cc3ccccc3)n2)cc([N+](=O)[O-])c1,–,–,–,–,2 µM,150 µM,2 µM,8 µM,1 µM,8 µM,2 µM,2 µM,0.5 µM,1 µM,1 µM
